In patent US20230391768A2, “IMIDAZOPYRIDINE DERIVATIVES AND AZA-IMIDAZOPYRIDINE DERIVATIVES AS JANUS KINASE 2 INHIBITORS AND USES THEREOF” (Dana-Farber Cancer Institute, Inc., priority 2018, published 2023):

Assays:
Assay in all cases: KINOMEscan
Assay type in all cases: binding
Settings in all cases: read-out: percent of control
VPS34 = VPS34 (Homo sapiens (Human), UniProt Q8NEB9)
Protocol: (§1) In vitro profiling of Compound I-2 (1 μM) was performed using the DiscoveRx KINOMEscan® platform.

RIPK2 = RIPK2 (Homo sapiens (Human), UniProt O43353)
Protocol: as §1

TGFBR2 = TGFBR2 (Homo sapiens (Human), UniProt P37173)
Sequence of TGFBR2 (P37173 23-567): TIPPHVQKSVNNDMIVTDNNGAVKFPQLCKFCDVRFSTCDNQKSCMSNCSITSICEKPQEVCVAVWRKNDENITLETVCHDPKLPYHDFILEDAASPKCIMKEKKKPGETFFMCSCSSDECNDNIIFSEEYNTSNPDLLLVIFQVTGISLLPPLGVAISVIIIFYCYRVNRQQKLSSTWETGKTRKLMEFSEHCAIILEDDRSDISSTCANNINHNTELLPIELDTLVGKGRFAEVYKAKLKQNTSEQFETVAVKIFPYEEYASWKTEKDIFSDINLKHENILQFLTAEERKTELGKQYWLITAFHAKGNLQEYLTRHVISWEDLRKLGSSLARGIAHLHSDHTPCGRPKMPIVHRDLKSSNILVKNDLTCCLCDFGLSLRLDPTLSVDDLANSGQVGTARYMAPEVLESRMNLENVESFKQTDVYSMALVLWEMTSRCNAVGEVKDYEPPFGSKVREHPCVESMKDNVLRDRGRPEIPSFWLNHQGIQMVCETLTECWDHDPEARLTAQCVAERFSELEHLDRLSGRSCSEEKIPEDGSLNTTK
Protocol: as §1

PIK3CA(C420R) = PIK3CA(C420R) (Homo sapiens (Human), UniProt P42336, C420R)
Protocol: as §1

PKMYT1 = PKMYT1 (Homo sapiens (Human), UniProt Q99640)
Protocol: as §1

ALK(C1156Y) = ALK(C1156Y) (Homo sapiens (Human), UniProt Q9UM73, C1156Y)
Protocol: as §1

ROS1 = ROS1 (Homo sapiens (Human), UniProt P08922)
Protocol: as §1

PIM1 = PIM1 (Homo sapiens (Human), UniProt P11309)
Sequence of PIM1 (P11309 whole entry): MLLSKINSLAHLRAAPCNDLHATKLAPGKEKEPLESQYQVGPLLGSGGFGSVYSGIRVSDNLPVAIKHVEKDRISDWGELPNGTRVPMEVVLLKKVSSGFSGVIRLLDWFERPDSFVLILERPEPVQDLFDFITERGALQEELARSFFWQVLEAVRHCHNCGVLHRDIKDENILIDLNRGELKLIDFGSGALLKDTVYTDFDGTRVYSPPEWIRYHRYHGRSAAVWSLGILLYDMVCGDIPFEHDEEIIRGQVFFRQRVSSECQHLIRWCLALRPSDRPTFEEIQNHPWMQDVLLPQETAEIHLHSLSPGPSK
Protocol: as §1

[1] = molecular target: RPS6KA5 (Kin.Dom.2-C-terminal) (Homo sapiens (Human), UniProt O75582)
Sequence of RPS6KA5 (Kin.Dom.2-C-terminal) (O75582 426-687): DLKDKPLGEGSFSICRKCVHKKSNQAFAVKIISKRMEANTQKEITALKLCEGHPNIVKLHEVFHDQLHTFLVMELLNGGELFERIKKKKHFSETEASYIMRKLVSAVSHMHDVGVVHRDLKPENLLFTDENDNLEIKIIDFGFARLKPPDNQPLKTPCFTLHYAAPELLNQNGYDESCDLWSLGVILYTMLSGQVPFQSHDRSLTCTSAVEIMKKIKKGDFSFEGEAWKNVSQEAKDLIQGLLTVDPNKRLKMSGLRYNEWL
Protocol: as §1

BMPR2 = BMPR2 (Homo sapiens (Human), UniProt Q13873)
Protocol: as §1

NEK5 = NEK5 (Homo sapiens (Human), UniProt Q6P3R8)
Protocol: as §1

FGFR1 = FGFR1 (Homo sapiens (Human), UniProt P11362)
Protocol: as §1

[2] = molecular target: TYK2(JH1domain-catalytic) (Homo sapiens (Human), UniProt P29597)
Protocol: as §1

EGFR(S752-I759del) = EGFR(S752-I759del) (Homo sapiens (Human), UniProt P00533, DEL752-759)
Sequence of EGFR(S752-I759del) (P00533 other isoform, or with tags, fused parts or gaps del S752-I759): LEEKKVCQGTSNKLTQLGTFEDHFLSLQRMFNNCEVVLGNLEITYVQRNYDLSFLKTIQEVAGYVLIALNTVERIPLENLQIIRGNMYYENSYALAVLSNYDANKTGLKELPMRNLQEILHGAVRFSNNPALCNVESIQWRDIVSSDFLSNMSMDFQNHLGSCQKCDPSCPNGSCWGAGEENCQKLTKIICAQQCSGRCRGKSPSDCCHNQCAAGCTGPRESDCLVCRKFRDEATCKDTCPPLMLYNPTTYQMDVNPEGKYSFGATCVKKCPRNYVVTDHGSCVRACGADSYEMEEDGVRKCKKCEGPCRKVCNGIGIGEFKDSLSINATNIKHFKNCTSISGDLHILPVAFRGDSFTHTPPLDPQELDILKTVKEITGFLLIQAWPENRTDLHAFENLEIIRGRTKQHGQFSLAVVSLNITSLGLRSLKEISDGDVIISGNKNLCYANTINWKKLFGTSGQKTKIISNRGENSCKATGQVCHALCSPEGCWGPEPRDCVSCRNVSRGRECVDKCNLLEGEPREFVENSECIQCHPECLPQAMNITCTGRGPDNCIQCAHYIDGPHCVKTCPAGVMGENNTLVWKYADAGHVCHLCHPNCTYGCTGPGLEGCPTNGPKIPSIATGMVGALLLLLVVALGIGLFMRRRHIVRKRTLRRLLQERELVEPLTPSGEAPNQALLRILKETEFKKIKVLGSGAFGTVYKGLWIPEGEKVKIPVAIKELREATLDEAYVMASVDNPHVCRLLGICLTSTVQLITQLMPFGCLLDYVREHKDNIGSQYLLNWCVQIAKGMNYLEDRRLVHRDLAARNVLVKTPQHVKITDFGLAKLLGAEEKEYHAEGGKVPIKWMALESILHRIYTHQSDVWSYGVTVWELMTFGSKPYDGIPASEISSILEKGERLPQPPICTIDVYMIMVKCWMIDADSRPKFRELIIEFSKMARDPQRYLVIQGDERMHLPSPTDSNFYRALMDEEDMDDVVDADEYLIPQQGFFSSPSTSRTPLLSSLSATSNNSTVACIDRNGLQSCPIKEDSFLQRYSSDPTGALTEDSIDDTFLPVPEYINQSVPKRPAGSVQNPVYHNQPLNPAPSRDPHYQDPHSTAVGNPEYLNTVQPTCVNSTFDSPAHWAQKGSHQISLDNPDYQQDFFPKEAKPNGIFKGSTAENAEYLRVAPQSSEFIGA
Protocol: as §1

ADCK4 = ADCK4 (Homo sapiens (Human), UniProt Q96D53)
Protocol: as §1

MARK4 = MARK4 (Homo sapiens (Human), UniProt Q96L34)
Protocol: as §1

PCTK3 = PCTK3 (Homo sapiens (Human), UniProt Q07002)
Sequence of PCTK3 (Q07002 whole entry): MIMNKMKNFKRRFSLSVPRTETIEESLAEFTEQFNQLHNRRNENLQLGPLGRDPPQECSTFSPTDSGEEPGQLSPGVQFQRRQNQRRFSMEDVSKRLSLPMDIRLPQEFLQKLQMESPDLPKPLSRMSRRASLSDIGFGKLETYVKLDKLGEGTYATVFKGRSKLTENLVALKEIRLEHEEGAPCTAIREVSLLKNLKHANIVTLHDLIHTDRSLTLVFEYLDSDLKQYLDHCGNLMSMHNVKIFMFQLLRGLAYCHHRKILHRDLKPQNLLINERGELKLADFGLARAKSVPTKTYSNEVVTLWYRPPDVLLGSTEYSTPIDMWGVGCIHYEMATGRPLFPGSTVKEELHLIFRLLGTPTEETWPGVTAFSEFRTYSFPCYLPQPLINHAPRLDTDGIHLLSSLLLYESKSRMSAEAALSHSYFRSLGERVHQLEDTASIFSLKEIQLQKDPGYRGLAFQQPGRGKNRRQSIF
Protocol: as §1

MET(M1250T) = MET(M1250T) (Homo sapiens (Human), UniProt P08581, M1250T)
Protocol: as §1

GAK = GAK (Homo sapiens (Human), UniProt O14976)
Protocol: as §1

RET = RET (Homo sapiens (Human), UniProt P07949)
Protocol: as §1

DCAMKL1 = DCAMKL1 (Homo sapiens (Human), UniProt O15075)
Protocol: as §1

SNARK = SNARK (Homo sapiens (Human), UniProt Q9H093)
Protocol: as §1

NIK = NIK (Homo sapiens (Human), UniProt Q99558)
Protocol: as §1

TLK2 = TLK2 (Homo sapiens (Human), UniProt Q86UE8)
Protocol: as §1

CDC2L2 = CDC2L2 (Homo sapiens (Human), UniProt Q9UQ88)
Protocol: as §1

GSK3B = GSK3B (Homo sapiens (Human), UniProt P49841)
Protocol: as §1

MRCKB = MRCKB (Homo sapiens (Human), UniProt Q9Y5S2)
Protocol: as §1

MAK = MAK (Homo sapiens (Human), UniProt P20794)
Protocol: as §1

MUSK = MUSK (Homo sapiens (Human), UniProt O15146)
Protocol: as §1

NDR2 = NDR2 (Homo sapiens (Human), UniProt Q9Y2H1)
Protocol: as §1

CHEK1 = CHEK1 (Homo sapiens (Human), UniProt O14757)
Protocol: as §1

MAP3K3 = MAP3K3 (Homo sapiens (Human), UniProt Q99759)
Sequence of MAP3K3 (Q99759 whole entry): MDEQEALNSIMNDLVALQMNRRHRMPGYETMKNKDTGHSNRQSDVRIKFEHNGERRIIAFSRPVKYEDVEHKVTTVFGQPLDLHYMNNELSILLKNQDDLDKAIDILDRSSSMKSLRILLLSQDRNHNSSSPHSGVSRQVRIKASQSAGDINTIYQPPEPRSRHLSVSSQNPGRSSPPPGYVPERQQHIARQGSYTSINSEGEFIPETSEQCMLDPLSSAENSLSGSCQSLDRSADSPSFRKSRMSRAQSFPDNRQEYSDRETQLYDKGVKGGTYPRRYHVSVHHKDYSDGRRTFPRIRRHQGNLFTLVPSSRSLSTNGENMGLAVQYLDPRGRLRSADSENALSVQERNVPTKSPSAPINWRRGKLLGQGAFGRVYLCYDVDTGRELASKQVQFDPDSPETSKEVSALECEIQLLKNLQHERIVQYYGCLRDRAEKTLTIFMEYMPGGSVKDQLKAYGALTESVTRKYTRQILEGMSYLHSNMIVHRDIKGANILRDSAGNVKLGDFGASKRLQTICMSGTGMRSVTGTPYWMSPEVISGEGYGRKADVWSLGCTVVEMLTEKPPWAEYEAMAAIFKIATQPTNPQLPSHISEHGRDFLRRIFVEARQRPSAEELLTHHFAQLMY
Protocol: as §1

GRK4 = GRK4 (Homo sapiens (Human), UniProt P32298)
Protocol: as §1

AMPK-alpha1 = AMPK-alpha1 (Homo sapiens (Human), UniProt Q13131)
Protocol: as §1

SIK = SIK (Homo sapiens (Human), UniProt P57059)
Protocol: as §1

MAP3K15 = MAP3K15 (Homo sapiens (Human), UniProt Q6ZN16)
Protocol: as §1

LATS1 = LATS1 (Homo sapiens (Human), UniProt O95835)
Sequence of LATS1 (O95835 whole entry): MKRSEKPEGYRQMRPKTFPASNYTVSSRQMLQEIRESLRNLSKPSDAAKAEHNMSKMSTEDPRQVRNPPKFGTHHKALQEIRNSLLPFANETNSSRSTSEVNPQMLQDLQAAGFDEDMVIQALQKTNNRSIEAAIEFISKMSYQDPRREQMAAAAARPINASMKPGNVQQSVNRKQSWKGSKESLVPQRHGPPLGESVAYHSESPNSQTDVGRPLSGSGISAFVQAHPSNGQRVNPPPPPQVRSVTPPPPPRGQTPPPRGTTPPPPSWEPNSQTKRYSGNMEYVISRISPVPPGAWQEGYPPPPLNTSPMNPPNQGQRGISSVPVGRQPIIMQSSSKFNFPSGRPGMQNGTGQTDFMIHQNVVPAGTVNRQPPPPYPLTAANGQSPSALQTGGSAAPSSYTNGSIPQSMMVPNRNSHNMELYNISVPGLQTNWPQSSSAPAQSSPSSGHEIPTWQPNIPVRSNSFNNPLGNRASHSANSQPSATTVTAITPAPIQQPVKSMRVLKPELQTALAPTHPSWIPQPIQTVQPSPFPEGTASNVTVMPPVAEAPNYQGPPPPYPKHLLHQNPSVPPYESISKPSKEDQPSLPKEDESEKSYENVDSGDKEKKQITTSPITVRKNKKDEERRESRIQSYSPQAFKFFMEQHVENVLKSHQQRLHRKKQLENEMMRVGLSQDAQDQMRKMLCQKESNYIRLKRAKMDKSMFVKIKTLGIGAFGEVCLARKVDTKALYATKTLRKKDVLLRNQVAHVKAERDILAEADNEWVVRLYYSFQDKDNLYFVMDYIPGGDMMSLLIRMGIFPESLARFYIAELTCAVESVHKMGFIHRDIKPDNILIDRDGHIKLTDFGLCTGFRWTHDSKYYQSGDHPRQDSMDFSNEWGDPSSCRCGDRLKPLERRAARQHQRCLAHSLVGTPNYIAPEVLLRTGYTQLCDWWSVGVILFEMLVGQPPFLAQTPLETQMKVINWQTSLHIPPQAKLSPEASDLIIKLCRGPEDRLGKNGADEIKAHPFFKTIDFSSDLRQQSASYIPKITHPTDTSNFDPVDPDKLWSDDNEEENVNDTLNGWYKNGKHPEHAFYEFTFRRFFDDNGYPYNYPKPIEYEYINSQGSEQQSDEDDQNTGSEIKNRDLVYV
Protocol: as §1

[3] = molecular target: RSK1 (Kin.Dom.1-N-terminal) (Homo sapiens (Human), UniProt Q15418)
Sequence of RSK1 (Kin.Dom.1-N-terminal) (Q15418 62-321): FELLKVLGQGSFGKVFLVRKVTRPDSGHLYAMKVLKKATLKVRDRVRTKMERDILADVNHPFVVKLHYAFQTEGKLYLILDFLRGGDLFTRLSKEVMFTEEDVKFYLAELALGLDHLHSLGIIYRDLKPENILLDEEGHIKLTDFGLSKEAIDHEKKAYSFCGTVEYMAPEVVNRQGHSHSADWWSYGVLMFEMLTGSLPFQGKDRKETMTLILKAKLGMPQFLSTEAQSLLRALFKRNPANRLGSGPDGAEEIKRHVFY
Protocol: as §1

CCN1CCN(Cc2cc(NC(=O)c3ccc(C)c(-c4ccc5nc(NC(=O)C6CC6)cn5n4)c3)cc(C(F)(F)F)c2)CC1 [Compound I-2, 3-(2-(cyclopropanecarboxamido)imidazo[1,2-b]pyridazin-6-yl)-N-(3-((4-ethylpiperazin-1-yl)methyl)-5-(trifluoromethyl)phenyl)-4-methylbenzamide]
remaining binding at 1 µM (VPS34): 91% | remaining binding at 1 µM (RIPK2): 89% | remaining binding at 1 µM (TGFBR2): 90% | remaining binding at 1 µM (PIK3CA(C420R)): 85% | remaining binding at 1 µM (PKMYT1): 100% | remaining binding at 1 µM (ALK(C1156Y)): 30% | remaining binding at 1 µM (ROS1): 52% | remaining binding at 1 µM (PIM1): 90% | remaining binding at 1 µM [1]: 100% | remaining binding at 1 µM (BMPR2): 100% | remaining binding at 1 µM (NEK5): 89% | remaining binding at 1 µM (FGFR1): 77% | remaining binding at 1 µM [2]: 54% | remaining binding at 1 µM (EGFR(S752-I759del)): 80% | remaining binding at 1 µM (ADCK4): 75% | remaining binding at 1 µM (MARK4): 84% | remaining binding at 1 µM (PCTK3): 4.8% | remaining binding at 1 µM (MET(M1250T)): 9.9% | remaining binding at 1 µM (GAK): 99% | remaining binding at 1 µM (RET): 0% | remaining binding at 1 µM (DCAMKL1): 90% | remaining binding at 1 µM (SNARK): 100% | remaining binding at 1 µM (NIK): 100% | remaining binding at 1 µM (TLK2): 100% | remaining binding at 1 µM (CDC2L2): 27% | remaining binding at 1 µM (GSK3B): 93% | remaining binding at 1 µM (MRCKB): 100% | remaining binding at 1 µM (MAK): 11% | remaining binding at 1 µM (MUSK): 0.6% | remaining binding at 1 µM (NDR2): 98% | remaining binding at 1 µM (CHEK1): 100% | remaining binding at 1 µM (MAP3K3): 48% | remaining binding at 1 µM (GRK4): 81% | remaining binding at 1 µM (AMPK-alpha1): 99% | remaining binding at 1 µM (SIK): 100% | remaining binding at 1 µM (MAP3K15): 55% | remaining binding at 1 µM (LATS1): 87% | remaining binding at 1 µM [3]: 97%

CCN1CCN(Cc2cc(NC(=O)c3ccc(C)c(-c4ccc5nc(NC(=O)C6CC6)cn5c4)c3)cc(C(F)(F)F)c2)CC1 [Compound I-6, 3-(2-(cyclopropanecarboxamido)imidazo[1,2-a]pyridin-6-yl)-N-(3-((4-ethylpiperazin-1-yl)methyl)-5-(trifluoromethyl)phenyl)-4-methylbenzamide]
remaining binding at 1 µM (VPS34): 93% | remaining binding at 1 µM (RIPK2): 35% | remaining binding at 1 µM (TGFBR2): 86% | remaining binding at 1 µM (PIK3CA(C420R)): 95% | remaining binding at 1 µM (PKMYT1): 100% | remaining binding at 1 µM (ALK(C1156Y)): 29% | remaining binding at 1 µM (ROS1): 59% | remaining binding at 1 µM (PIM1): 93% | remaining binding at 1 µM [1]: 98% | remaining binding at 1 µM (BMPR2): 100% | remaining binding at 1 µM (NEK5): 100% | remaining binding at 1 µM (FGFR1): 57% | remaining binding at 1 µM [2]: 41% | remaining binding at 1 µM (EGFR(S752-I759del)): 65% | remaining binding at 1 µM (ADCK4): 91% | remaining binding at 1 µM (MARK4): 80% | remaining binding at 1 µM (PCTK3): 27% | remaining binding at 1 µM (MET(M1250T)): 42% | remaining binding at 1 µM (GAK): 93% | remaining binding at 1 µM (RET): 0% | remaining binding at 1 µM (DCAMKL1): 84% | remaining binding at 1 µM (SNARK): 100% | remaining binding at 1 µM (NIK): 72% | remaining binding at 1 µM (TLK2): 98% | remaining binding at 1 µM (CDC2L2): 34% | remaining binding at 1 µM (GSK3B): 100% | remaining binding at 1 µM (MRCKB): 100% | remaining binding at 1 µM (MAK): 22% | remaining binding at 1 µM (MUSK): 2.1% | remaining binding at 1 µM (NDR2): 59% | remaining binding at 1 µM (CHEK1): 100% | remaining binding at 1 µM (MAP3K3): 56% | remaining binding at 1 µM (GRK4): 98% | remaining binding at 1 µM (AMPK-alpha1): 90% | remaining binding at 1 µM (SIK): 100% | remaining binding at 1 µM (MAP3K15): 95% | remaining binding at 1 µM (LATS1): 85% | remaining binding at 1 µM [3]: 100%
